ChEMBL document CHEMBL4706559, “New indolylarylsulfone non-nucleoside reverse transcriptase inhibitors show low nanomolar inhibition of single and double HIV-1 mutant strains” (Eur J Med Chem, 2020)

Assays:
[1] = biological target: Human immunodeficiency virus type 1 reverse transcriptase (Human immunodeficiency virus 1) (UniProt Q72547); assay: Ratio of Kon of wild type HIV-1 p66/p51 reverse transcriptase/nucleic acid binary complex to Kon of wild type HIV-1 p66/p51 reverse transcriptase/nucleic acid/dTTP ternary complex using poly(rA)/oligo(dT) as templates in presence of [3H]dTTP
[2] = tested on: Human immunodeficiency virus 1; assay: Synergistic inhibition of HIV-1 p66/p51 reverse transcriptase K103N/Y181C double mutant assessed as combination index using poly(rA)/oligo(dT) as templates in presence of [3H]dTTP preincubated enzyme with nucleic acid followed by addition of AZTTP and subsequent incubation with compound and dTTP
[3] = biological target: Human immunodeficiency virus type 1 reverse transcriptase (Human immunodeficiency virus 1) (UniProt Q72547); assay: Synergistic inhibition of wild type HIV-1 p66/p51 reverse transcriptase assessed as combination index using poly(rA)/oligo(dT) as templates in presence of [3H]dTTP preincubated with enzyme and AZTTP followed by substrate addition
[4] = tested on: Human immunodeficiency virus 1; assay: Binding affinity to HIV-1 p66/p51 reverse transcriptase K103N/Y181C double mutant/nucleic acid binary complex assessed as association constant using poly(rA)/oligo(dT) as templates in presence of [3H]dTTP
[5] = tested on: Human immunodeficiency virus 1; assay: Inhibition of HIV1 p66/p51 reverse transcriptase K103N/Y181C double mutant assessed as apparent Vmax at 75 nM using fixed concentration of poly(rA)/oligo(dT) as templates in presence of 2 to 100 uM of [3H]dTTP by Michaelis-Menten analysis (reference value: 9.6 +/- 0.4%)
[6] = tested on: Human immunodeficiency virus 1; assay: Ratio of Koff of HIV-1 p66/p51 reverse transcriptase K103N/Y181C double mutant/nucleic acid/dTTP ternary complex to Koff of free form of HIV-1 p66/p51 reverse transcriptase using poly(rA)/oligo(dT) as templates in presence of [3H]dTTP
[7] = biological target: Human immunodeficiency virus type 1 reverse transcriptase (Human immunodeficiency virus 1) (UniProt Q72547); assay: Ratio of Koff of wild type HIV-1 p66/p51 reverse transcriptase/nucleic acid binary complex to Koff of free form of wild type HIV-1 p66/p51 reverse transcriptase using poly(rA)/oligo(dT) as templates in presence of [3H]dTTP
[8] = biological target: Human immunodeficiency virus type 1 reverse transcriptase (Human immunodeficiency virus 1) (UniProt Q72547); assay: Binding affinity to wild type HIV-1 p66/p51 reverse transcriptase/nucleic acid/dTTP ternary complex assessed as association constant using poly(rA)/oligo(dT) as templates in presence of [3H]dTTP
[9] = tested on: Human immunodeficiency virus 1; assay: Antiviral activity against HIV-1 NL4-3 infected in human MT-4 cells assessed as virus induced cytopathic effect by MTT assay; assay type: functional, organism-based; conditions: Human immunodeficiency virus 1, NL4-3, MT4
[10] = biological target: Human immunodeficiency virus type 1 reverse transcriptase (Human immunodeficiency virus 1) (UniProt Q72547); assay: Binding affinity to wild type HIV-1 p66/p51 reverse transcriptase/nucleic acid/dTTP ternary complex assessed as dissociation constant using poly(rA)/oligo(dT) as templates in presence of [3H]dTTP
[11] = tested on: Human immunodeficiency virus 1; assay: Binding affinity to free form of HIV-1 p66/p51 reverse transcriptase K103N/Y181C double mutant assessed as dissociation constant using poly(rA)/oligo(dT) as templates in presence of [3H]dTTP
[12] = tested on: Human immunodeficiency virus 1; assay: Inhibition of HIV1 p66/p51 reverse transcriptase K103N/Y181C double mutant assessed as apparent Vmax at 300 nM using 10 to 500 uM poly(rA)/oligo(dT) as templates in presence of fixed concentration of [3H]dTTP by Michaelis-Menten analysis (reference value: 12 +/- 1%)
[13] = tested on: Human immunodeficiency virus 1; assay: Inhibition of HIV1 p66/p51 reverse transcriptase K103N/Y181C double mutant assessed as apparent Vmax at 300 nM using fixed concentration of poly(rA)/oligo(dT) as templates in presence of 2 to 100 uM of [3H]dTTP by Michaelis-Menten analysis (reference value: 9.6 +/- 0.4%)
[14] = Inhibition of RNA-dependent DNA polymerase activity of recombinant HIV-1 p66/p51 reverse transcriptase K103N/Y181C mutant assessed as inhibition of [3H]dTTP incorporation using poly(rA)/oligo(dT) as templates incubated for 15 mins by MicroBeta scintillation counting method; design: species or system Human immunodeficiency virus 1
[15] = Inhibition of RNA-dependent DNA polymerase activity of recombinant HIV-1 p66/p51 reverse transcriptase Y188L mutant assessed as inhibition of [3H]dTTP incorporation using poly(rA)/oligo(dT) as templates incubated for 15 mins by MicroBeta scintillation counting method; design: species or system Human immunodeficiency virus 1
[16] = tested on: Human immunodeficiency virus 1; assay: Binding affinity to free form of HIV-1 p66/p51 reverse transcriptase K103N/Y181C double mutant assessed as association constant using poly(rA)/oligo(dT) as templates in presence of [3H]dTTP
[17] = tested on: Human immunodeficiency virus 1; assay: Resistance index, ratio of EC50 for antiviral activity against HIV1 harboring RT K103N/Y181C double mutant infected in human MT4 cells to EC50 for antiviral activity against HIV1 NL4-3 infected in human MT4 cells; assay type: functional
[18] = tested on: Human immunodeficiency virus 1; assay: Inhibition of HIV1 p66/p51 reverse transcriptase K103N/Y181C double mutant assessed as apparent Vmax at 150 nM using fixed concentration of poly(rA)/oligo(dT) as templates in presence of 2 to 100 uM of [3H]dTTP by Michaelis-Menten analysis (reference value: 9.6 +/- 0.4%)
[19] = tested on: Human immunodeficiency virus 1; assay: Synergistic inhibition of HIV-1 p66/p51 reverse transcriptase K103N/Y181C double mutant assessed as combination index using poly(rA)/oligo(dT) as templates in presence of [3H]dTTP preincubated with enzyme and AZTTP followed by substrate addition; assay type: functional
[20] = tested on: Human immunodeficiency virus 1; assay: Binding affinity to HIV-1 p66/p51 reverse transcriptase K103N/Y181C double mutant/nucleic acid/dTTP ternary complex assessed as dissociation constant using poly(rA)/oligo(dT) as templates in presence of [3H]dTTP
[21] = biological target: Human immunodeficiency virus type 1 reverse transcriptase (Human immunodeficiency virus 1) (UniProt Q72547); assay: Binding affinity to free form of wild type HIV-1 p66/p51 reverse transcriptase assessed as association constant using poly(rA)/oligo(dT) as templates in presence of [3H]dTTP
[22] = Selectivity ratio of CC50 for human MT4 cells to EC50 for antiviral activity against HIV-1 NL4-3 infected in human MT4 cells; assay type: toxicity, cell-based; conditions: read-out: Ratio CC50/EC50
[23] = tested on: Human immunodeficiency virus 1; assay: Inhibition of HIV1 p66/p51 reverse transcriptase K103N/Y181C double mutant assessed as apparent Km of substrate at 300 nM using […] as templates in presence of fixed concentration of [3H]dTTP by Michaelis-Menten analysis (reference value: 106+/- 16 nM)
[24] = biological target: Human immunodeficiency virus type 1 reverse transcriptase (Human immunodeficiency virus 1, UniProt Q72547); assay: Binding affinity to wild type HIV-1 p66/p51 reverse transcriptase/nucleic acid binary complex using poly(rA)/oligo(dT) as templates in presence of [3H]dTTP
[25] = tested on: Human immunodeficiency virus 1; assay: Synergistic inhibition of wild type HIV-1 p66/p51 reverse transcriptase assessed as combination index using poly(rA)/oligo(dT) as templates in presence of [3H]dTTP preincubated enzyme with nucleic acid followed by addition of AZTTP and subsequent incubation with compound and dTTP

Work on `Cc1cc(C)cc(S(=O)(=O)c2c(C(=O)NCc3ccccc3O)[nH]c3ccc(Cl)cc23)c1` yielded a Ratio [1] of 7, a CI [2] of 0.6 and a CI [3] of 1.15. For the same compound, the K [4] was 10 10^-5/nM/s, the Vmax(app) [5] was 6.2% and the Ratio [6] was 4. The Ratio [7] was 8, the K [8] was 15 10^-5/nM/s and the EC50 [9] was < 0.7 nM. For the same compound, the K [10] was 4.1 10^-3/s, the K [11] was 14 10^-3/s and the Vmax(app) [12] was 3.2%. The Vmax(app) [13] was 1.5%, the IC50 [14] was 76 nM and the IC50 [15] was 61 nM. For the same compound, the K [16] was 10 10^-5/nM/s, the “Ratio EC50” value [17] was >8.8 and the Vmax(app) [18] was 2.9%. The CI [19] was 0.81, the K [20] was 33 10^-3/s and the K [21] was 13 10^-5/nM/s. The selectivity ratio [22] was > 39700, the Km [23] was 0.104 µM and the Ki [24] was 36 nM. It also gave a CI [25] of 0.75.
